In PMC3148216, “A Prokaryotic S1P Lyase Degrades Extracellular S1P In Vitro and In Vivo: Implication for Treating Hyperproliferative Disorders” (PLoS ONE, 2011):

Target: T1, StSPL (S1P lyase from Symbiobacterium thermophilum) (Symbiobacterium thermophilum, UniProt Q67PY4)
T1 construct: gene STH1274; full-length STH1274, C-terminal His-tag, expressed in E. coli, 507 residues, 55 kDa monomer, homodimer (110 kDa); PLP-dependent, residues of both subunits form the active site
Assay: visible spectrum of enzyme-bound cofactor, change on substrate addition
Format: binding
Conditions: Schiff base with K311, covalent; S1P added; purified in PBS with 10 µM PLP

T1 sequence (Q67PY4 entry or part of it): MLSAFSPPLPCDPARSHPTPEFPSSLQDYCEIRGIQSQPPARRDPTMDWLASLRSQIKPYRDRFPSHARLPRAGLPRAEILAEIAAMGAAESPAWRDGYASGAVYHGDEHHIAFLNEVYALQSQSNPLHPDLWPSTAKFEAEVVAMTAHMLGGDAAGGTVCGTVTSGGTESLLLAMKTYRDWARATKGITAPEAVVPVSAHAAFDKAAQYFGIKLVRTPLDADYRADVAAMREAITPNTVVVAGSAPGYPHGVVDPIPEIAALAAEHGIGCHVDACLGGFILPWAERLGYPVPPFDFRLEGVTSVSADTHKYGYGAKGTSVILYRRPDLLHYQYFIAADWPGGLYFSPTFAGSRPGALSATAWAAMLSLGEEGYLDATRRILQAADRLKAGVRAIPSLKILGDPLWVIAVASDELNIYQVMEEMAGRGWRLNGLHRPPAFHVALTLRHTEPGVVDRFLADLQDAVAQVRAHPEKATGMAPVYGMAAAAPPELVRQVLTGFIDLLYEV

## Cc1ncc(COP(=O)(O)O)c(C=O)c1O [PLP, pyridoxal-5′-phosphate]
  visible spectrum of enzyme-bound cofactor, change on substrate addition: recording spectrophotometric changes of the cofactor upon catalysis
